Experimental data as given in the NIST ThermoML archive (doi:10.1021/je900672g).

Assay: isobaric coefficient of expansion
Details: Liquid, DSC

O=[N+]([O-])c1ccccc1 [nitrobenzene]
isobaric coefficient of expansion
Details | 288.15 K | 298.15 K | 308.15 K | 318.15 K | 328.15 K | 338.15 K | 348.15 K
5000 kPa | 0.000818 1/K | 0.000823 1/K | 0.000827 1/K | 0.000832 1/K | 0.000837 1/K | 0.000843 1/K | 0.000852 1/K
10000 kPa | 0.000813 1/K | 0.000808 1/K | 0.000812 1/K | 0.00082 1/K | 0.000821 1/K | 0.000828 1/K | 0.000827 1/K
15000 kPa | 0.000797 1/K | 0.0008 1/K | 0.000799 1/K | 0.000802 1/K | 0.000802 1/K | 0.000806 1/K | 0.000811 1/K
20000 kPa | 0.000785 1/K | 0.000785 1/K | 0.000787 1/K | 0.000792 1/K | 0.000787 1/K | 0.00079 1/K | 0.000794 1/K
25000 kPa | 0.000775 1/K | 0.000772 1/K | 0.000773 1/K | 0.000774 1/K | 0.000774 1/K | 0.000775 1/K | 0.00078 1/K
30000 kPa | 0.000762 1/K | 0.000762 1/K | 0.00076 1/K | 0.000762 1/K | 0.000761 1/K | 0.000762 1/K | 0.000764 1/K
35000 kPa | 0.000749 1/K | 0.000752 1/K | 0.00075 1/K | 0.000749 1/K | 0.00075 1/K | 0.000751 1/K | 0.00075 1/K
40000 kPa | 0.00074 1/K | 0.000742 1/K | 0.000737 1/K | 0.000737 1/K | 0.000739 1/K | 0.000736 1/K | 0.000734 1/K
45000 kPa | 0.000729 1/K | 0.000731 1/K | 0.000728 1/K | 0.000729 1/K | 0.000726 1/K | 0.000725 1/K | 0.000721 1/K
50000 kPa | 0.000725 1/K | 0.000722 1/K | 0.000719 1/K | 0.000718 1/K | 0.000716 1/K | 0.000715 1/K | 0.000711 1/K
55000 kPa | 0.000717 1/K | 0.000714 1/K | 0.00071 1/K | 0.00071 1/K | 0.000707 1/K | 0.000708 1/K | 0.000701 1/K

CCC[N+](=O)[O-] [1-nitropropane]
isobaric coefficient of expansion
Details | 278.15 K | 288.15 K | 298.15 K | 308.15 K | 318.15 K | 328.15 K | 338.15 K | 348.15 K
5000 kPa | 0.00105 1/K | 0.00106 1/K | 0.00108 1/K | 0.00109 1/K | 0.00113 1/K | 0.00115 1/K | 0.00119 1/K | 0.00122 1/K
10000 kPa | 0.00103 1/K | 0.00104 1/K | 0.00105 1/K | 0.00106 1/K | 0.00109 1/K | 0.00111 1/K | 0.00113 1/K | 0.00117 1/K
15000 kPa | 0.00101 1/K | 0.00101 1/K | 0.00103 1/K | 0.00104 1/K | 0.00106 1/K | 0.00107 1/K | 0.00109 1/K | 0.00111 1/K
20000 kPa | 0.000982 1/K | 0.000991 1/K | 0.001 1/K | 0.00101 1/K | 0.00103 1/K | 0.00104 1/K | 0.00105 1/K | 0.00107 1/K
25000 kPa | 0.000966 1/K | 0.000972 1/K | 0.000977 1/K | 0.000986 1/K | 0.000995 1/K | 0.00101 1/K | 0.00102 1/K | 0.00103 1/K
30000 kPa | 0.000943 1/K | 0.000954 1/K | 0.000958 1/K | 0.000963 1/K | 0.000976 1/K | 0.000981 1/K | 0.000988 1/K | 0.000996 1/K
35000 kPa | 0.000933 1/K | 0.000932 1/K | 0.000941 1/K | 0.000945 1/K | 0.000952 1/K | 0.000957 1/K | 0.000964 1/K | 0.000967 1/K
40000 kPa | 0.000913 1/K | 0.000916 1/K | 0.00092 1/K | 0.000921 1/K | 0.000927 1/K | 0.00093 1/K | 0.00093 1/K | 0.000932 1/K
45000 kPa | 0.000902 1/K | 0.000902 1/K | 0.000904 1/K | 0.000906 1/K | 0.00091 1/K | 0.000912 1/K | 0.000914 1/K | 0.000915 1/K
50000 kPa | 0.000885 1/K | 0.000887 1/K | 0.000889 1/K | 0.000891 1/K | 0.000895 1/K | 0.000894 1/K | 0.000894 1/K | 0.000894 1/K
55000 kPa | 0.000871 1/K | 0.000874 1/K | 0.000875 1/K | 0.000873 1/K | 0.00088 1/K | 0.00088 1/K | 0.000883 1/K | 0.000879 1/K
